Ki data for one molecule are collected here from publication PMC4370873, “The RNA Template Channel of the RNA-Dependent RNA Polymerase as a Target for Development of Antiviral Therapy of Multiple Genera within a Virus Family” (PLoS Pathogens, 2015).

In general, Ki refers to the equilibrium dissociation constant of an inhibitor or competing ligand from its target. The low end stands for a stronger hold on the target, the high end for a looser hold on the target.

In this assay the target is T1, EMCV 3Dpol (Mengo virus, UniProt P12296).
T1 construct: mature 3Dpol cut from polyprotein (1834 to 2293, 460 residues); cleavable His6-thioredoxin tag (pETG20A) removed; expressed in E. coli Rosetta (DE3) pLysS
The assay can be described thus: [3H]UTP incorporation on poly(rA)/dT15, filter binding. The assay is classed as biochemical.

T1 sequence (P12296 1834-2293): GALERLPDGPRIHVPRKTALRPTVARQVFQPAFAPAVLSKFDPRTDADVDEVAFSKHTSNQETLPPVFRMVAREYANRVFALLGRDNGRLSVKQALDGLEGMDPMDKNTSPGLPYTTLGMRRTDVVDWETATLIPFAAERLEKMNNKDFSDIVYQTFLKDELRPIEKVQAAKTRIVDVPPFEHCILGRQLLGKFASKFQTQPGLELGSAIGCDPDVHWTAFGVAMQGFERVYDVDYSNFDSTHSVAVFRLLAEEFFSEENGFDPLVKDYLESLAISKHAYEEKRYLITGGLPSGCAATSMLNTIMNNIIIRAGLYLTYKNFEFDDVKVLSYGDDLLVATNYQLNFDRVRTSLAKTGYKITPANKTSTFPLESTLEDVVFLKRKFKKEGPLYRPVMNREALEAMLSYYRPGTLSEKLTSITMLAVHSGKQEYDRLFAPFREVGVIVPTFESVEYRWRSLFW

`N#Cc1cc([N+](=O)[O-])ccc1Oc1ccc(Cl)cc1Oc1ccc([N+](=O)[O-])cc1C#N` [GPC-N114, 2,2'-[(4-chloro-1,2-phenylene)bis(oxy)]bis(5-nitro-benzonitrile)] registered an inhibitory constant (Ki) of 1300 nM.
